The numbers were not newly measured in patent publication US20050112210A1, “Eye nutritional supplement” (priority 2003, published 2005), which cites them from elsewhere.

The data set concerns A2E-epoxidation. Conditions: singlet oxygen generated in the presence of A2E.
Take `Cc1cc(C(C)(C)C)c(O)c(C(C)(C)C)c1` [butylated hydroxytoluene]: the “effect on A2E-epoxidation” value was “reduced A2E-epoxidation by quenching singlet oxygen”.

`Oc1ccc(C=Cc2cc(O)cc(O)c2)cc1` [resveratrol]: the “effect on A2E-epoxidation” value was “reduced A2E-epoxidation by quenching singlet oxygen”.

In the case of vitamin E, the “effect on A2E-epoxidation” value is “reduced A2E-epoxidation by quenching singlet oxygen”.
